Drawing on patent US7223759B2, “Antibacterial 3,5-diaminopiperidine-substituted aromatic and heteroaromatic compounds” (Anadys Pharmaceuticals, Inc., priority 2003, dated 2007), this text covers MIC for 28 molecules.

One experiment has as its system Escherichia coli (ATCC25922) or Staphylococcus aureus (ATCC25923). As to the kind of experiment: Antibacterial MIC, microdilution method in Mueller-Hinton medium. It is filed as cell-based. As to conditions: Escherichia coli, 18 h, MIC in E. coli or S. aureus; two-fold serial dilutions 64 to 0.5 μg/ml in duplicate; 18 hours of incubation at 35° C.; read-out: Potency (MIC). In short, it runs like this: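 Read after 18 h incubation at 35° C, MIC is the lowest compound level that blocked growth. Compounds were tested in duplicate over 64–0.5 μg/ml two-fold dilutions using Mueller-Hinton microdilution per NCCLS standard.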
In general terms: In broth dilution the organism is exposed to a series of concentrations in liquid medium.
As for `Cc1cc(Nc2nc(N3C[C@H](N)C[C@H](N)C3)nc(N3C[C@H](N)C[C@H](N)C3)n2)ccc1NC(=O)c1ccc(O)cc1O` [N-[4-(2,4-dihydroxy-benzoylamino)-3-methyl-phenyl]-4,6-Bis-((3R,5S)-3,5-diamino-piperidin-1-yl)-[1,3,5]triazine-2-amine], the MIC was less than 16 µg/mL.
Same read-out and setting: for `Cl.O=C(Nc1ccc(Nc2nc(N3CCCCC3)nc(N3CCCCC3)n2)cc1O)c1c(Cl)cccc1Cl` [N-[4-(2,6-dichloro-benzoylamino)-3-hydroxy-phenyl]-4,6-Bis-((3R,5S)-3,5-diamine-piperidin-1-yl)-[1,3,5]triazine-2-amine] the value was less than 64 µg/mL; for `Cc1cc(NS(=O)(=O)c2ccc(Nc3nc(N4C[C@H](N)C[C@H](N)C4)nc(N4C[C@H](N)C[C@H](N)C4)n3)cc2)nc(C)n1.Cl` [N-[4-(2,6-dimethyl-pyrimidin-4-ylsulfamoyl)-phenyl]-4,6-Bis-((3R,5S)-3,5-diamino-piperidin-1-yl)-[1,3,5]triazine-2-amine], greater than 64 µg/mL; for `Cl.O=C(Nc1cc(C(F)(F)F)ccc1Cl)c1ccc(Nc2nc(N3CCCCC3)nc(N3CCCCC3)n2)cc1O` [N-[4-(2-chloro-5-trifluoromethyl-phenylcarbamoyl)-3-hydroxy-phenyl]-4,6-Biss-((3R,5S)-3,5-diamino-piperidin-1-yl)-[1,3,5]triazine-2-amine], less than 64 µg/mL.
`Cl.O=C(Nc1ccccc1Cl)c1ccc(Nc2nc(N3CCCCC3)nc(N3CCCCC3)n2)cc1O` [N-[4-(2-choro-phenylcarbamoyl)-3-hydroxy-phenyl]-4,6-Bis-((3R,5S)-3,5-diamino-piperidin-1-yl)-[1,3,5]triazine-2-amine]: the MIC was less than 64 µg/mL.
Take `Cc1cc(NC(=O)c2cccc([N+](=O)[O-])c2O)ccc1Nc1nc(N2CCCCC2)nc(N2CCCCC2)n1.Cl` [N-[4-(2-hydroxy-3-nitro-benzoylamino)-2-methyl-pphenyl]-4,6-Bis-((3R,5S)-3,5-diamino-piperidin-1-yl)-[1,3,5]triazine-2-amine]: the MIC was greater than 64 µg/mL.

The experiment is the same for the next values; noted with them: Escherichia coli, 18 h, read-out: Potency (MIC).
`N[C@@H]1C[C@H](N)CN(c2nc(Nc3ccc(NC(=O)c4ccc(O)cc4O)cc3)nc(N3C[C@H](N)C[C@H](N)C3)n2)C1` [N-[4-(2,4-dihydroxy-benzoylamino)-phenyl]-4,6-Bis-((3R,5S)-3,5-diamino-piperidin-1-yl)-[1,3,5]triazine-2-amine]: the MIC was less than 16 µg/mL.
The same measure, in the same setting: for `COc1ccc(OC)c(NC(=O)c2ccc(Nc3nc(N4C[C@H](N)C[C@H](N)C4)nc(N4C[C@H](N)C[C@H](N)C4)n3)cc2O)c1` [N-[4-(2,5-dimethoxy-phenylcarbamoyl)-3-hydroxy-phenyl]-4,6-Bis-((3R,5S)-3,5-diamino-piperidin-1-yl)-[1,3,5]triazine-2-amine] the value was less than 16 µg/mL; for `COc1cccc(OC)c1C(=O)Nc1ccc(Nc2nc(N3C[C@H](N)C[C@H](N)C3)nc(N3C[C@H](N)C[C@H](N)C3)n2)cc1O` [N-[4-(2,6-dimethoxy-benzoylamino)-3-hydroxy-phenyl]-4,6-Bis-((3R,5S)-3,5-diamino-piperidin-1-yl)-[1,3,5]triazine-2-amine], less than 64 µg/mL; for `N[C@@H]1C[C@H](N)CN(c2nc(Nc3ccc(NC(=O)c4ccccc4Cl)c(O)c3)nc(N3C[C@H](N)C[C@H](N)C3)n2)C1` [N-[4-(2-chloro-benzoylamino)-3-hydroxy-phenyl]-4,6-Bis-((3R,5S)-3,5-diamino-piperidin-1-yl)-[1,3,5]triazine-2-amine], less than 64 µg/mL.
`CCN(CC)CCNC(=O)c1ccc(Nc2nc(N3C[C@H](N)C[C@H](N)C3)nc(N3C[C@H](N)C[C@H](N)C3)n2)cc1` [N-[4-(2-diethylamino-ethylcarbamoyl)-phenyl]-4,6-Bis-((3R,5S)-3,5-diamino-piperidin-1-yl)-[1,3,5]triazine-2-amine]: the MIC is less than 64 µg/mL.
The same measure, in the same setting: for `N[C@@H]1C[C@H](N)CN(c2nc(Nc3ccc(C(=O)Nc4ccccc4F)c(O)c3)nc(N3C[C@H](N)C[C@H](N)C3)n2)C1` [N-[4-(2-fluoro-phenylcarbamoyl)-3-hydroxy-phenyl]-4,6-Bis-((3R,5S)-3,5-diamino-piperidin-1-yl)-[1,3,5]triazine-2-amine] the value was less than 64 µg/mL; for `CC(C)c1cc(C(=O)Nc2ccc(Nc3nc(N4C[C@H](N)C[C@H](N)C4)nc(N4C[C@H](N)C[C@H](N)C4)n3)cc2)c(O)c(C(C)C)c1` [N-[4-(2-hydroxy-3,5-diisopropyl-benzoylamino)-phenyl]-4,6-Bis-((3R,5S)-3,5-diamino-piperidin-1-yl)-[1,3,5]triazine-2-amine], less than 16 µg/mL; for `COc1cccc(C(=O)Nc2ccc(Nc3nc(N4C[C@H](N)C[C@H](N)C4)nc(N4C[C@H](N)C[C@H](N)C4)n3)cc2)c1O` [N-[4-(2-hydroxy-3-methoxy-benzoylamino)-phenyl]-4,6-Bis-((3R,5S)-3,5-diamino-piperidin-1-yl)-[1,3,5]triazine-2-amine], less than 64 µg/mL.
On the same count and under the same terms, for `Cc1cc(Nc2nc(N3C[C@H](N)C[C@H](N)C3)nc(N3C[C@H](N)C[C@H](N)C3)n2)ccc1NC(=O)c1cccc(C)c1O` [N-[4-(2-hydroxy-3-methyl-benzoylamino)-3-methyl-phenyl]-4,6-Bis-((3R,5S)-3,5-diamino-piperidin-1-yl)-[1,3,5]triazine-2-amine] the value was less than 64 µg/mL.
The same measure, in the same setting: the result for `Cc1cc(Nc2nc(N3C[C@H](N)C[C@H](N)C3)nc(N3C[C@H](N)C[C@H](N)C3)n2)ccc1NC(=O)c1cccc([N+](=O)[O-])c1O` [N-[4-(2-hydroxy-3-nitro-benzoylamino)-3-methyl-phenyl]-4,6-Bis-((3R,5S)-3,5-diamino-piperidin-1-yl)-[1,3,5]triazine-2-amine] reads less than 64 µg/mL.
As for `N[C@@H]1C[C@H](N)CN(c2nc(Nc3ccc(NC(=O)c4cccc([N+](=O)[O-])c4O)cc3)nc(N3C[C@H](N)C[C@H](N)C3)n2)C1` [N-[4-(2-hydroxy-3-nitro-benzoylamino)-phenyl]-4,6-Bis-((3R,5S)-3,5-diamino-piperidin-1-yl)-[1,3,5]triazine-2-amine], the MIC was greater than 64 µg/mL.
Regarding `COc1ccc(C(=O)Nc2ccc(Nc3nc(N4C[C@H](N)C[C@H](N)C4)nc(N4C[C@H](N)C[C@H](N)C4)n3)cc2)c(O)c1` [N-[4-(2-hydroxy-4-methoxy-benzoylamino)-phenyl]-4,6-Bis-((3R,5S)-3,5-diamino-piperidin-1-yl)-[1,3,5]triazine-2-amine], the MIC is greater than 64 µg/mL.
On the same count and under the same terms, for `Cc1ccc(C(=O)Nc2ccc(Nc3nc(N4C[C@H](N)C[C@H](N)C4)nc(N4C[C@H](N)C[C@H](N)C4)n3)c(C)c2)c(O)c1` [N-[4-(2-hydroxy-4-methyl-benzoylamino)-2-methyl-phenyl]-4,6-Bis-((3R,5S)-3,5-diamino-piperidin-1-yl)-[1,3,5]triazine-2-amine] the value was less than 64 µg/mL.
Still for that read-out and setting: for `Cc1ccc(C(=O)Nc2ccc(Nc3nc(N4C[C@H](N)C[C@H](N)C4)nc(N4C[C@H](N)C[C@H](N)C4)n3)cc2C)c(O)c1` [N-[4-(2-hydroxy-4-methyl-benzoylamino)-3-methyl-phenyl]-4,6-Bis-((3R,5S)-3,5-diamino-piperidin-1-yl)-[1,3,5]triazine-2-amine] the value was less than 64 µg/mL; for `Cc1ccc(C(=O)Nc2ccc(Nc3nc(N4C[C@H](N)C[C@H](N)C4)nc(N4C[C@H](N)C[C@H](N)C4)n3)cc2)c(O)c1` [N-[4-(2-hydroxy-4-methyl-benzoylamino)-phenyl]-4,6-Bis-((3R,5S)-3,5-diamino-piperidin-1-yl)-[1,3,5]triazine-2-amine], less than 16 µg/mL.
Same read-out and setting: for `COc1ccc(O)c(C(=O)Nc2ccc(Nc3nc(N4C[C@H](N)C[C@H](N)C4)nc(N4C[C@H](N)C[C@H](N)C4)n3)cc2)c1` [N-[4-(2-hydroxy-5-methoxy-benzoylamino)-phenyl]-4,6-Bis-((3R,5S)-3,5-diamino-piperidin-1-yl)-[1,3,5]triazine-2-amine] the value was less than 64 µg/mL.
Turning to `N[C@@H]1C[C@H](N)CN(c2nc(Nc3ccc(NC(=O)c4cc(OC(F)(F)F)ccc4O)cc3)nc(N3C[C@H](N)C[C@H](N)C3)n2)C1` [N-[4-(2-hydroxy-5-trifluoromethoxy-benzoylamino)-phenyl]-4,6-Bis-((3R,5S)-3,5-diamino-piperidin-1-yl)-[1,3,5]triazine-2-amine], the MIC is less than 16 µg/mL.
Regarding `N[C@@H]1C[C@H](N)CN(c2nc(Nc3ccc(NC(=O)CO)cc3)nc(N3C[C@H](N)C[C@H](N)C3)n2)C1` [N-[4-(2-hydroxy-acetylamino)-phenyl]-4,6-Bis-((3R,5S)-3,5-diamino-piperidin-1-yl)-[1,3,5]triazine-2-amine], the MIC was greater than 64 µg/mL.
As for `N[C@@H]1C[C@H](N)CN(c2nc(Nc3ccc(C(=O)CC(=O)Nc4ccccc4)cc3)nc(N3C[C@H](N)C[C@H](N)C3)n2)C1` [N-[4-(2-phenylcarbamoyl-acetyl)-phenyl]-4,6-Bis-((3R,5S)-3,5-diamino-piperidin-1-yl)-[1,3,5]triazine-2-amine], the MIC was less than 16 µg/mL.
Still for that read-out and setting: for `N[C@@H]1C[C@H](N)CN(c2nc(Nc3ccc(C(=O)Nc4ccc(Cl)c(Cl)c4)c(O)c3)nc(N3C[C@H](N)C[C@H](N)C3)n2)C1` [N-[4-(3,4-dichloro-phenylcarbamoyl)-3-hydroxy-phenyl]-4,6-Bis-((3R,5S)-3,5-diamino-piperidin-1-yl)-[1,3,5]triazine-2-amine] the value was less than 16 µg/mL.
The same measure, in the same setting: the result for `N[C@@H]1C[C@H](N)CN(c2nc(Nc3ccc(NC(=O)c4ccc(F)c(F)c4O)c(O)c3)nc(N3C[C@H](N)C[C@H](N)C3)n2)C1` [N-[4-(3,4-difluoro-2-hydroxy-benzoylamino)-3-hydroxy-phenyl]-4,6-Bis-((3R,5S)-3,5-diamino-piperidin-1-yl)-[1,3,5]triazine-2-amine] reads less than 64 µg/mL.
Same read-out and setting: the result for `N[C@@H]1C[C@H](N)CN(c2nc(Nc3ccc(NC(=O)c4ccc(F)c(F)c4O)cc3)nc(N3C[C@H](N)C[C@H](N)C3)n2)C1` [N-[4-(3,4-difluoro-2-hydroxy-benzoylamino)-phenyl]-4,6-Bis-((3R,5S)-3,5-diamino-piperidin-1-yl)-[1,3,5]triazine-2-amine] reads less than 64 µg/mL.

Broadly, the MIC is the lowest concentration found to suppress growth.
